Read-outs that look alike come from different tables or passages of the source.
Experiments:
MF patients = conditions: cited from earlier work
PIM3 = conditions: cited from earlier work
PIM1 = conditions: cited from earlier work
Solid tumor = conditions: n = 35; cited from earlier work
PIM2 = conditions: cited from earlier work
R/R AML = conditions: R/R AML, n = 32; cited from earlier work
[1] = tested on: human myeloid progenitors (CFU-GM); assay: Colony forming cell assay, human myeloid (granulocyte-monocyte, CFU-GM) progenitor proliferation; assay type: cell-based; conditions: single agent
Experimental: (§1) Clonogenic progenitors of human erythroid (CFU-E, BFU-E), granulocyte-monocyte (CFU-GM), and multipotential (CFU-GEMM) lineages were assessed in a semi-solid methylcellulose-based media formulation containing rhIL-3 (10 ng/mL), rhGM-SCF (10 ng/mL), rhSCF (50 ng/mL), and Epo (3 U/mL).
(§2) In addition, 5-FU was evaluated at 1.0, 0.1 and 0.01 μg/mL as a positive control for toxicity.
(§3) Normal human bone marrow light density cells (lot #0210901), derived from normal bone marrow, (Lonza, Maryland) and qualified at ReachBio, were stored at −152° C. until required for the assay. On the day of the experiment, the cells were thawed rapidly, diluted in 10 mL of Iscove's modified Dulbecco's medium containing 10% fetal bovine serum (IMDM+10% FBS) and washed by centrifugation (approximately 1500 r.p.m. for 10 minutes at room temperature). The supernatant was discarded and the cell pellets were resuspended in a known volume of IMDM+10% FBS. A cell count (3% glacial acetic acid) and viability assessment (trypan blue exclusion test) was performed for the bone marrow sample.
(§4) Clonogenic progenitors of human megakaryocyte (CFU-Mk) were assessed in a collagen-based media formulation containing rhIL-3 (10 ng/mL), rhIL-6 (10 ng/mL), and Tpo (50 ng/mL). Clonogenic progenitors of the human erythroid (CFU-E and BFU-E), myeloid (CFU-GM), and megakaryocyte (CFU-Mk) lineages were set up in the media formulations described above. Individually, the test compounds were added to the medium to give the final desired concentrations (10, 3.33, 1, 0.333, 0.1, 0.0333, 0.01 and 0.00333 μM). […] Solvent control cultures (containing no compound but 0.1% DMSO) as well as standard controls (containing no compound and no DMSO) were also initiated. Once introduced into the matrices, the tubes were vortexed to ensure an equal distribution throughout.
(§5) Human myeloid and erythroid progenitor assays were initiated at 1.2×10^4 cells per culture (lot #0210921) and the human megakaryocyte assays were initiated at 1.2×10^5 cells per culture (lot #0210921). Following 14 days in culture, erythroid and myeloid colonies were assessed microscopically in situ and scored by trained personnel. The colonies were divided into the following categories based on size and morphology: CFU-E, BFU-E, CFU-GM, and CFU-GEMM. The human megakaryocyte cultures were transferred from the 35 mm dishes to labeled glass slides, fixed with methanol/acetone fixative, and then stained with anti-human CD41 antibody and an alkaline phosphate detection system according to manufacturers' instructions. The colonies were assessed microscopically and scored by trained personnel and divided into the following categories based on size: CFU-Mk (3-20), CFU-Mk (21-49), and CFU-Mk (≥50).
(§6) Statistical analysis: The mean±standard deviation of three replicate cultures was calculated for both erythroid and myeloid progenitors. Two-tailed standard t-tests were performed to assess if there was a difference in the number of colonies generated between solvent control and treated cultures. Due to the potential subjectivity of colony enumeration, a p value of less than 0.01 is deemed significant. To calculate the concentration of 50% inhibition of colony growth (IC50) for each compound, a dose response curve was generated plotting the log of the compound concentration versus the percentage of control colony growth using GraphPad Prism 9 software.
(§7) Erythroid (CFU-E and BFU-E) and myeloid (CFU-GM) colony enumeration was performed by trained personnel. In addition, the distribution of colony types as well as general colony and cellular morphology was analyzed. The variance in colony number detected in replicate cultures was representative of the historical coefficient of variation for colony enumeration using these types of assays. The number and distribution of colonies detected in the solvent control (0.1% DMSO for single agents) was no different from the standard control (containing no compound and no DMSO). […]

[2] = tested on: human erythroid progenitors (CFU-E, BFU-E); assay: Colony forming cell assay, human erythroid progenitor (CFU-E, BFU-E) proliferation; assay type: cell-based; conditions: 336 h, single agent, 14 days, CFU-E and BFU-E
Experimental: as §1, §2, §3
Clonogenic progenitors of human megakaryocyte (CFU-Mk) were assessed in a collagen-based media formulation containing rhIL-3 (10 ng/mL), rhIL-6 (10 ng/mL), and Tpo (50 ng/mL). Clonogenic progenitors of the human erythroid (CFU-E and BFU-E), myeloid (CFU-GM), and megakaryocyte (CFU-Mk) lineages were set up in the media formulations described above. Individually, the test compounds were added to the medium to give the final desired concentrations (10, 3.33, 1, 0.333, 0.1, 0.0333, 0.01 and 0.00333 μM). […]
Human myeloid and erythroid progenitor assays were initiated at 1.2×10^4 cells per culture (lot #0210921) and the human megakaryocyte assays were initiated at 1.2×10^5 cells per culture (lot #0210921). Following 14 days in culture, erythroid and myeloid colonies were assessed microscopically in situ and scored by trained personnel. […] The colonies were assessed microscopically and scored by trained personnel and divided into the following categories based on size: CFU-Mk (3-20), CFU-Mk (21-49), and CFU-Mk (≥50).
Statistical analysis: The mean±standard deviation of three replicate cultures was calculated for both erythroid and myeloid progenitors. […]
as §7

R/R MF = conditions: cited from earlier work
[3] = tested on: human megakaryocyte progenitors (CFU-Mk); assay: Colony forming cell assay, human megakaryocyte progenitor (CFU-Mk) proliferation; assay type: cell-based; conditions: Homo sapiens; single agent; read-out: IC50, total CFU-Mk (megakaryocyte progenitor proliferation)
Experimental: as §2, §3, §4, §5, §6
Other than the test compounds being combined, the only change from the method in Example 1 was a 0.2% DMSO solvent control instead of 0.1% DMSO. The results are provided in FIGS. 2A-4C (FIGS. 2A-2C are human megakaryocytes (CFU-MK), FIGS. 3A-3C are human erythroid (CFU-E, BFU-E), and FIGS. 4A-4C are human granulocyte-monocyte (CFU-GM).

[4] = tested on: hematology parameters (platelet counts); assay: CGLP preclinical dog study, hematology parameters; assay type: in vivo
[5] = JAKARTA, monotherapy 400 mg QD, N = 96
[6] = PERSIST 2, monotherapy 200 mg BID, N = 106
[7] = ≥50 × 10^9/L PLT, regimen RUX+Paraclisib

Cc1cnc(Nc2ccc(OCCN3CCCC3)cc2)nc1Nc1cccc(S(=O)(=O)NC(C)(C)C)c1 [Fedratinib, fedratinib]
TEAE Anemia, All Gr (MF patients; [5]): 99%
TEAE Anemia, ≥3 Gr (MF patients; [5]): 43%
TEAE Neutropenia, All Gr (MF patients; [5]): 28%
TEAE Neutropenia, ≥3 Gr (MF patients; [5]): 8%
TEAE Thrombocytopenia, All Gr (MF patients; [5]): 63%
TEAE Thrombocytopenia, ≥3 Gr (MF patients; [5]): 17%

N[C@@H]1CCCN(c2c(/C=C3\SC(=O)NC3=O)cccc2-c2ccccc2)C1 [AZD1208]
IC50 (PIM3; read-out: Preclinical IC50, PIM3): 1.9 nM
Efficacy, stable disease for ≥6 weeks (Solid tumor): ≥6 weeks in 13 patients
Hem AE, Anemia (Solid tumor): Anemia (51%),
Hem AE, Thrombocytopenia (Solid tumor): (14-26%)
Hem AE, WBC decreased (Solid tumor): WBC decreased (26%)
Non-hem AE, diarrhea (Solid tumor): Diarrhea (83%),
Non-hem AE, nausea (Solid tumor): nausea (74%)
Non-hem AE, vomiting (Solid tumor): vomiting (54%),
Efficacy, circulating blasts (in several patients) (R/R AML): response, reduction
Hem AE, Febrile neutropenia (R/R AML): (28%)
Non-hem AE, diarrhea (R/R AML): diarrhea (44%),
Non-hem AE, nausea (R/R AML): Nausea (47%)
Non-hem AE, pneumonia (R/R AML): pneumonia (19%)
Non-hem AE, vomiting (R/R AML): vomiting (31%),

C1=C/COCc2cc(ccc2OCCN2CCCC2)Nc2nccc(n2)-c2cccc(c2)COC/1 [pacritinib]
TEAE Anemia, All Gr (MF patients; [6]): 24%
TEAE Anemia, ≥3 Gr (MF patients; [6]): 22%
TEAE Neutropenia, ≥3 Gr (MF patients; [6]): 7%
TEAE Thrombocytopenia, All Gr (MF patients; [6]): 34%
TEAE Thrombocytopenia, ≥3 Gr (MF patients; [6]): 32%
IC50 ([1]; Homo sapiens, 336 h, 14 days, CFU-GM): 170 nM
concentrations at which myeloid progenitor proliferation was (significantly, additionally) inhibited ([1]; vs 0.1% DMSO solvent control, p<0.01): 0.1 µM
IC50 [2]: 280 nM
SVR35 at Week 24 (R/R MF; <50 × 10^9/L PLT, monotherapy): 29%
IC50 [3]: 340 nM

CCOc1c([C@H](C)n2nc(C)c3c(N)ncnc32)cc(Cl)c(F)c1[C@@H]1CNC(=O)C1 [Parsaclisib, parsaclisib]
SVR35 at Week 24 (R/R MF; [7]): 3%
TSS50 at Week 24 (R/R MF; [7]): 11%

CN1CCC(CNc2ccc3ncc(-c4cccc(OC(F)(F)F)c4)n3n2)CC1 [Compound (2)]
IC50 (PIM3; unit inferred, read-out: PIM3 IC50): 20 nM
hematology parameters ([4]; 10 mg/kg/day, either sex): not considered to be altered
platelet counts (PLT) increase ([4]; 30 mg/kg/day, females): 12.1%
platelet counts (PLT) increase ([4]; 30 mg/kg/day, males): 16.5%
platelet counts (PLT) increase ([4]; 90 mg/kg/day, females): 26.3%
platelet counts (PLT) increase ([4]; 90 mg/kg/day, males): 20%
IC50 (PIM2; unit inferred, read-out: PIM2 IC50): 980 nM

Cc1noc2c1-c1ccccc1C(c1ccc(Cl)cc1)=N[C@H]2CC(N)=O [Pelabresib, pelabresib]
SVR35 at Week 24 (R/R MF; ≥75 × 10^9/L PLT, monotherapy): 11%
TSS50 at Week 24 (R/R MF; ≥75 × 10^9/L PLT, monotherapy): 28%

Reference: patent US20260306490A1, “PIM1 INHIBITOR FOR TREATING MYELOPROLIFERATIVE NEOPLASMS” (Sumitomo Pharma America, Inc., priority 2022, published 2026)
